Measured values published in ChEMBL document CHEMBL1909046, “DrugMatrix in vitro pharmacology data”.

Columns and labels:
Cytochrome P450 2A6 = biological target: T1, Cytochrome P450 2A6 (Homo sapiens, UniProt P11509); conditions: bti-tn-5b1-4; further: in other assays of this panel Not Active means under 50% inhibition at 10 µM
T1 sequence (P11509 whole entry): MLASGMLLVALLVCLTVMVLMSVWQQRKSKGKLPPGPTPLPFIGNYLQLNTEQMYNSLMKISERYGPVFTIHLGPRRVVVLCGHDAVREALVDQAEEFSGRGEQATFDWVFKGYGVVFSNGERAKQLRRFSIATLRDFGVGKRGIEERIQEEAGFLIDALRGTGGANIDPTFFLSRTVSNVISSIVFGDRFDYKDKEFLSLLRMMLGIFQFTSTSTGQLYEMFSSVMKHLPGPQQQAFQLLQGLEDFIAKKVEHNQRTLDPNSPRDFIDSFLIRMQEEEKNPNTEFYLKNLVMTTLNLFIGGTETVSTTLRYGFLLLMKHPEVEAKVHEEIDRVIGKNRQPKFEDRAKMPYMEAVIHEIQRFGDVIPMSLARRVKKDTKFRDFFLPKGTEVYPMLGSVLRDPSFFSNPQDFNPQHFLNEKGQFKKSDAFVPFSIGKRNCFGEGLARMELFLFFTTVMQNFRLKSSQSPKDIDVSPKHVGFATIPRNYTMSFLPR

Histamine H2 receptor = Histamine H2 receptor (Homo sapiens, UniProt P25021); format: cell membranes, CHO-K1, Membrane; further: in other assays of this panel Not Active means under 50% inhibition at 10 µM
Melanocortin receptor 5 = Melanocortin receptor 5 (Homo sapiens, UniProt P33032); format: cell membranes, HEK293, Membrane; conditions: hek293; further: in other assays of this panel Not Active means under 50% inhibition at 10 µM
Insulin receptor = Insulin receptor (Rattus norvegicus, UniProt P15127); format: cell membranes, Wistar, Liver, Membrane; further: in other assays of this panel Not Active means under 50% inhibition at 10 µM
[1] = DRUGMATRIX: Nicotinic Acetylcholine radioligand binding (ligand: [125I] Epibatidine); format: cell membranes, Membrane; conditions: imr-32; Not Active = under 50% inhibition at 10 µM
[2] = biological target: T2, 3-hydroxy-3-methylglutaryl-coenzyme A reductase (Homo sapiens, UniProt P04035); design: species or system Escherichia coli
T2 sequence (P04035 whole entry): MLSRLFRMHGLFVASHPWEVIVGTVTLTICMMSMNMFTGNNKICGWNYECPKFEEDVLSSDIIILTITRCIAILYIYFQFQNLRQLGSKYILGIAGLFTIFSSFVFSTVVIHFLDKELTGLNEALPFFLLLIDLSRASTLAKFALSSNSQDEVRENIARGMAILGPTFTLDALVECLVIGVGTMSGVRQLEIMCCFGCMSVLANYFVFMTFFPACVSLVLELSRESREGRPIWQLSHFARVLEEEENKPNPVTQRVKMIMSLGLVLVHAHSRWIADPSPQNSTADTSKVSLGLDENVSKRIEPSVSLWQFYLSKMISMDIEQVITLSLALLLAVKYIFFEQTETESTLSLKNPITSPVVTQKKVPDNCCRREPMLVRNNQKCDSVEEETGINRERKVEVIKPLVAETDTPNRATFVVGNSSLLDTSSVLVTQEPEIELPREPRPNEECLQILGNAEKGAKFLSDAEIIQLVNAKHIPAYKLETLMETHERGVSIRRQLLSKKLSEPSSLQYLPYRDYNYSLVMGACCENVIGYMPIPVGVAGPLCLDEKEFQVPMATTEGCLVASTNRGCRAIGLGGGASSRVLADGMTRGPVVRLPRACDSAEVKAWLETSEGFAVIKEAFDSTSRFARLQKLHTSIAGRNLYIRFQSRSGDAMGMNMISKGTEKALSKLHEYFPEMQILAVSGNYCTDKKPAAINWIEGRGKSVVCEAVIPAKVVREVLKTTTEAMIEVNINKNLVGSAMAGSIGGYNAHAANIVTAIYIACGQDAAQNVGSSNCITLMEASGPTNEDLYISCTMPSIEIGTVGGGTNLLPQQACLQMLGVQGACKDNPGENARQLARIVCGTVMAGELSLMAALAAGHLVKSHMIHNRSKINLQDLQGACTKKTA

Insulin receptor, sequence (P15127 27-759 limits assumed): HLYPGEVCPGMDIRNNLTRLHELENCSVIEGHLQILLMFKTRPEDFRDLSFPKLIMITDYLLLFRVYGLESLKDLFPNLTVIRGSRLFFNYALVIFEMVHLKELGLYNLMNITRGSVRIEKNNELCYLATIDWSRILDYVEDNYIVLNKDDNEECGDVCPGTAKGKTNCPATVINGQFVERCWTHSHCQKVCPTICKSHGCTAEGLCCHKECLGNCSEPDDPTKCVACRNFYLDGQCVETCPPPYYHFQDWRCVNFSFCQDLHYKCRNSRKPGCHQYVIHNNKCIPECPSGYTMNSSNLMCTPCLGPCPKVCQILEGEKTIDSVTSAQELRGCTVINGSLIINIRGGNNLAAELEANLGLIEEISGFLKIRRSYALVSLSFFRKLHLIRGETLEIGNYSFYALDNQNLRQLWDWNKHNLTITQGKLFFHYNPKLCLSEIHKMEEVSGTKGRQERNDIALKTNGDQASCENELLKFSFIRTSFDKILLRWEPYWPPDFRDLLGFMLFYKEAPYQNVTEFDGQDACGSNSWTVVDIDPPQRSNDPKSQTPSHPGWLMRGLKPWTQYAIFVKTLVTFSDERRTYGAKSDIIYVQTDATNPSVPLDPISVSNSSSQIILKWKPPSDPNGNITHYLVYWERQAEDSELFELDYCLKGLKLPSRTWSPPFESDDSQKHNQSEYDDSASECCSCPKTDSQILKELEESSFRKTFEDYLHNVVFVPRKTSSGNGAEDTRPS
Insulin receptor, sequence (P15127 764-1383 limits assumed): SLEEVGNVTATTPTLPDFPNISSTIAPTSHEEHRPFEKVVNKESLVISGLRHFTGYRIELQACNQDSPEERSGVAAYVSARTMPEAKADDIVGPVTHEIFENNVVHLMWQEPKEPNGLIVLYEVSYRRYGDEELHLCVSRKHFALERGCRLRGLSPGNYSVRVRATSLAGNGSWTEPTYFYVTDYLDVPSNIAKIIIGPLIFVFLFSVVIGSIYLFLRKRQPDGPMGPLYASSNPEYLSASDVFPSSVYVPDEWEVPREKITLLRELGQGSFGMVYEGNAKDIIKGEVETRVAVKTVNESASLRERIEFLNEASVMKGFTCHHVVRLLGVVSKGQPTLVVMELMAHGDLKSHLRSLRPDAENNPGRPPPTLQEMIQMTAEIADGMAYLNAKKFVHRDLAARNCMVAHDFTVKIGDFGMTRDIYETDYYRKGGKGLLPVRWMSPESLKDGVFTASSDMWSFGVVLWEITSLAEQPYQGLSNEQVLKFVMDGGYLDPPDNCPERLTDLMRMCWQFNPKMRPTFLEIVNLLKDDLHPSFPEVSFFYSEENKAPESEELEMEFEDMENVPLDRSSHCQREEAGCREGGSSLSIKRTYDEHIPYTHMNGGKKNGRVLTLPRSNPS
Melanocortin receptor 5, sequence (P33032 whole entry): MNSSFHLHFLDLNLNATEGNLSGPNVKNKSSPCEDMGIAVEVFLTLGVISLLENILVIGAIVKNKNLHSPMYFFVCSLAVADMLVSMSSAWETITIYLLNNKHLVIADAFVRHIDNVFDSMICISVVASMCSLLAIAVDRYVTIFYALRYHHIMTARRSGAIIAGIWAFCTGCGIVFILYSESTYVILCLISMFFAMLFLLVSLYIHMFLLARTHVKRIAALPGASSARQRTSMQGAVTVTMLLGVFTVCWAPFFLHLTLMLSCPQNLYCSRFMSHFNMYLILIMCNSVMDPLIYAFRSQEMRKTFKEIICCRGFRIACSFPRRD
Histamine H2 receptor, sequence (P25021 whole entry): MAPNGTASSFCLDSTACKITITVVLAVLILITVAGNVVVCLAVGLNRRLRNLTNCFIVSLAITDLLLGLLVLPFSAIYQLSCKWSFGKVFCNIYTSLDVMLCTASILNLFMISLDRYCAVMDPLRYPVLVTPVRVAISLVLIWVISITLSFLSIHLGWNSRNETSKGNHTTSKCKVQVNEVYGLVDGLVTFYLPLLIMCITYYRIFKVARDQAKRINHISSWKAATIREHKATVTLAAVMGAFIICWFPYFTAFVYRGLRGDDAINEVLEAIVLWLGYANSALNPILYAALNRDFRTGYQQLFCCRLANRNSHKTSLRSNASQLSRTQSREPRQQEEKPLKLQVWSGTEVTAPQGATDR

SMILES | IC50 (Cytochrome P450 2A6) | Ki (Cytochrome P450 2A6) | IC50 (Histamine H2 receptor; cho-k1) | IC50 (Melanocortin receptor 5) | IC50 (Insulin receptor) | IC50 [1] | Ki [1] | IC50 [2] | IC50 (Histamine H2 receptor; read-out: IC50) | Ki (Histamine H2 receptor; read-out: Ki)
Oc1c(Cl)cc(Cl)c(Cl)c1Cc1c(O)c(Cl)cc(Cl)c1Cl [HEXACHLOROPHENE] | Not Active | Not Active | Not Active | Not Active | Not Active | Not Active | Not Active | Not Active | – | –
O=C1CN=C(c2ccccc2Cl)c2cc([N+](=O)[O-])ccc2N1 [CLONAZEPAM] | Not Active | Not Active | Not Active | Not Active | Not Active | Not Active | Not Active | Not Active | – | –
C[C@@H](CO)NC(=O)[C@@H]1C=C2c3cccc4[nH]cc(c34)C[C@H]2N(C)C1 [ERGONOVINE] | Not Active | Not Active | Not Active | Not Active | Not Active | Not Active | Not Active | Not Active | – | –
CCn1cc(C(=O)O)c(=O)c2cnc(N3CCCC3)nc21 [PIROMIDIC ACID] | Not Active | Not Active | Not Active | Not Active | Not Active | Not Active | Not Active | Not Active | – | –
C[C@@H]1C[C@H]2[C@@H]3CCC4=CC(=O)C=C[C@]4(C)[C@@]3(F)[C@@H](O)C[C@]2(C)[C@H]1C(=O)CO [DESOXIMETASONE] | Not Active | Not Active | Not Active | Not Active | Not Active | Not Active | Not Active | Not Active | – | –
CN(C)CC[C@@H](c1ccc(Cl)cc1)c1ccccn1 [DEXCHLORPHENIRAMINE] | Not Active | Not Active | – | Not Active | Not Active | Not Active | Not Active | Not Active | 8.37 µM | 8.23 µM
